# Assay results from patent US8106042B2 (priority 2008, dated 2012).
# Target: α7-subtype of nicotinic receptors (Mus musculus, UniProt P49582)
# Test: in vivo
# Design: species or system mice
# Details: read-out: Inhibition of 3H-α-Bungarotoxine Binding EC50
# Sequence of α7-subtype of nicotinic receptors (P49582 23-502): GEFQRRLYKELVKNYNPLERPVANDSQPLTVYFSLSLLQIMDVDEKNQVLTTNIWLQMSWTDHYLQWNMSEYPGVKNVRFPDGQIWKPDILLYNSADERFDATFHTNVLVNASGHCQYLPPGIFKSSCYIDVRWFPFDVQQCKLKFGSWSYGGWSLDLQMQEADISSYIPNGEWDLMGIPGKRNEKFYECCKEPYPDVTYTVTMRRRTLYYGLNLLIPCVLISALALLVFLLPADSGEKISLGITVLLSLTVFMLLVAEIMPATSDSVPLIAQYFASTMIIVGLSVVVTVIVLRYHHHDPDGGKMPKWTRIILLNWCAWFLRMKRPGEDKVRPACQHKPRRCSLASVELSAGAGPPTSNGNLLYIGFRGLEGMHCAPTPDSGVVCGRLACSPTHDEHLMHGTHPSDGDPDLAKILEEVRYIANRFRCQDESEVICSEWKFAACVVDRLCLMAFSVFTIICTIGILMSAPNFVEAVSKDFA
smiles,measurement,value
"[O-][N+]12CCC(CC1)N(c1nnc(-c3ccc4c(c3)OCO4)o1)CC2 [Compound 1, 4-(5-Benzo[1,3]-dioxol-5-yl-[1,3,4]oxadiazol-2-yl)-1,4-diazabicyclo[3.2.2]-nonane-1-oxide]",ED50,1.5 mg/kg
